Reference: patent US20260256933A1, “METHOD FOR TREATING CANCER VIA ANTI-B7H3 ANTIBODY-DRUG CONJUGATE” (MediLink Therapeutics (Suzhou) Co., Ltd., priority 2023, published 2026)

Key:
[1] = system: recurrent or malignant cervical cancer; details: treatment of recurrent or malignant cervical cancer; clinical; cited from earlier work
[2] = system: B-hB7-H3 MC38 transplantation tumours; assay: B-hB7-H3 MC38 transplantation tumour model, ADC1 in combination with anti-PD-L1 drug; assay type: in vivo, C57BL/6 mice; details: G4: anti-PD-L1 3 mg/kg i.p. BIW x4
Description: MC38 cells (Shunran (Shanghai) Biotechnology Co., Ltd.) were genetically modified to express the human B7H3 genes, thereby obtaining B-hB7-H3 MC38 cells. The cells were subcutaneously inoculated into C57BL/6 mice to establish a B-hB7-H3 MC38 tumour cell transplantation tumour model. When the tumours grew to approximately 140 mm^3, grouping for animal experiments was performed, a control group (G1: 0.9% sodium chloride injection), monotherapy groups (G2: ADC1 10 mg/kg group, G3: ADC1 3 mg/kg group, G4: anti-PD-L1 3 mg/kg group), and combination therapy groups (G5: group with ADC1 10 mg/kg in combination with anti-PD-L1 3 mg/kg, G6: group with ADC1 3 mg/kg in combination with anti-PD-L1 3 mg/kg) were established respectively, with 8 mice in each group. Dosing was performed according to the regimen in Table 1. The anti-PD-L1 drug was atezolizumab (Biocytogen). At the end of the experiment, therapeutic effects were evaluated according to the tumour growth inhibition (TGI), and tolerability was evaluated according to clinical observations, body weight changes, and mortality of the animals.
Note: a: the dosing volume was calculated at […] based on the body weight of the experimental animals, and each drug injection was completed within 10 to 20 seconds. • b: BIW refers to administration twice weekly. When the combined treatment groups were dosed on the same day, there was no required sequence or dosing interval between the two drugs.
Note: a: mean±standard error; b: statistical comparison of the tumour volume in the dosing groups versus the tumour volume in the G1 control group on Day 22 after grouping for dosing, one-way ANOVA analysis and Dunnett's test; ****p<0.0001. c: the tumour clearance proportion was counted according to the results on Day 25.

Row | Substance | ORR [1] [%] | TGITV (%) ([2]; Day 22) | Tumour volume before dosing ([2]; baseline before dosing, mean) [mm3] | Tumour clearance proportion ([2]; counted on Day 25) | Tumour volume Day 22 after grouping for dosing ([2]; mean) [mm3]
1 | Tivdak: an ADC drug targeting TF | 24 | – | – | – | –
2 | atezolizumab [Anti-PD-L1] | – | 22.4 | 140 | 0/8 | 1689
